Key:
Assay type in all cases: physicochemical
[1] = Δn (refractive index anisotropy) measurement, wedge-shaped liquid crystal cell; settings: at 550 nm and 30° C.; for compounds liable to crystallize, estimated from extrapolated values of mixtures with other liquid crystals
From the text: As a method of measuring the Δn, a method using a wedge-shaped liquid crystal cell described on page 202 of the Liquid Crystal Handbook (edited by Liquid Crystal Handbook Editing Committee, published by Maruzen Co., Ltd.) is generally used. In a case of a compound which is liable to crystallize, it is also possible to carry out evaluation with a mixture thereof with other liquid crystals and to estimate Δn from extrapolated values thereof.
The Δn corresponds to a measured value at a wavelength of 550 nm at 30° C.
Δn of each of the compounds was measured by a method using a wedge-shaped liquid crystal cell described on page 202 of the Liquid Crystal Handbook (edited by Liquid Crystal Handbook Editing Committee, published by Maruzen Co., Ltd.). In a case of the compound which is liable to crystallize, evaluation with a mixture thereof with other liquid crystals was carried out and Δn was estimated from extrapolated values thereof. The values in the table represent Δn's at 550 nm and 30° C.

[2] = Evaluation of light resistance (residual rate after ultraviolet irradiation); settings: 5 mg in acetonitrile (20 ml), 1 cm quartz cell, ultraviolet light 3 J/cm^2; residual rate by liquid chromatography
Method: Each (5 mg) of the compounds was dissolved in acetonitrile (20 ml), sealed in a 1 cm quartz cell, and the quartz cell was irradiated with ultraviolet light under a condition of 3 J/cm^2 using EXECURE 3000-W manufactured by HOYA-SCHOTT CORPORATION, so that a residual rate of each compound was measured. Amounts (masses) of each compound before and after light irradiation were calculated using liquid chromatography. In Table 1, “A” represents a residual rate of equal to or greater than 80%, “B” represents a residual rate of equal to or greater than 50% and less than 80%, and “C” represents a residual rate of less than 50%.
The residual rate is a ratio of an amount (mass) of a compound after light irradiation to an amount (mass) of the compound before light irradiation, and can be calculated by the following expression. Residual rate (%)=(amount of compound after light irradiation/amount of compound before light irradiation)×100

[3] = Solubility measurement in ethyl methyl ketone; settings: concentration in ethyl methyl ketone solution where the compound was completely dissolved
Method: Ethyl methyl ketone was added dropwise to each of the compounds, and a concentration (% by mass) of the compound in the obtained ethyl methyl ketone solution in a case where the compound was completely dissolved in the solution was measured as “solubility”. It is intended that a higher numerical value of solubility indicates excellent solubility in ethyl methyl ketone.

Row | SMILES | Δn [1] | Solubility [3] [% by mass] | Light resistance evaluation [2]
1 | C=CC(=O)OCCCCOc1ccc(C#Cc2ccc(NC(=O)c3ccc(OCCCCOC(=O)C=C)cc3)c(F)c2)cc1 [Compound a-5] | 0.278 | 11 | A (a residual rate of equal to or greater than 80%)
2 | C=CC(=O)OCCCCOc1ccc(C#Cc2ccc(NC(=O)c3ccc(OCCCCOC(=O)C=C)cc3)c(C)c2)cc1 [Compound a-2] | 0.280 | 23 | A (a residual rate of equal to or greater than 80%)
3 | C=CC(=O)OCCCCOc1ccc(C(=O)Nc2ccc(C#Cc3ccc4nc(SCCCCOC(=O)C=C)sc4c3)cc2C(F)(F)F)cc1 [Compound a-7] | 0.304 | 22 | A (a residual rate of equal to or greater than 80%)
4 | C=CC(=O)OCCCCOc1ccc(C#Cc2ccc(C(=O)Nc3ccc(C#Cc4ccc(OCCCCOC(=O)C=C)cc4)cc3C(F)(F)F)cc2)cc1 [Compound a-8] | 0.370 | 22 | A (a residual rate of equal to or greater than 80%)

The next lines start with results.

Row | Δn [1] | Solubility [3] [% by mass] | SMILES | Light resistance evaluation [2]
5 | 0.289 | 5 | C=CC(=O)OCCCCOc1ccc(C#Cc2ccc(NC(=O)c3ccc(OCCCCOC(=O)C=C)cc3)cc2)cc1 [Compound a-1] | A (a residual rate of equal to or greater than 80%)
6 | 0.287 | 38 | C=CC(=O)OCCCCOc1ccc(C#Cc2ccc(NC(=O)c3ccc(OCCCCOC(=O)C=C)cc3)c(C(F)(F)F)c2)cc1 [Compound a-6] | A (a residual rate of equal to or greater than 80%)
7 | 0.220 | – | C=CC(=O)OCCCCOc1ccc(C(=O)Oc2ccc(C#Cc3ccc(CCCCCCC)cc3)cc2)cc1 [Compound b-1, reference compound] | C (a residual rate of less than 50%)
8 | 0.282 | 19 | C=CC(=O)OCCCCOc1ccc(C#Cc2ccc(NC(=O)c3ccc(OCCCCOC(=O)C=C)cc3)cc2C)cc1 [Compound a-3] | A (a residual rate of equal to or greater than 80%)
9 | 0.301 | 20 | C=CC(=O)OCCCCOc1ccc(C#Cc2ccc(NC(=O)c3ccc(OCCCCOC(=O)C=C)cc3)c(OC)c2)cc1 [Compound a-4] | A (a residual rate of equal to or greater than 80%)
